According to patent US20250235496A1, “USE OF BELLIDIFOLIN (BEL) AND/OR BEL-CONTAINING EXTRACT IN PREPARATION OF ANTIDEPRESSANT PRODUCT” (priority 2024, published 2025):
Counter-ions that a name gives are not always drawn.

How the values were obtained:
5-HT1A = 5-HT1A protein expression in hippocampus (immunoblot); format: in vivo, mice; conditions: 10 and 20 mg/kg, 21 d, vs model group
From the text: (§1) There was no significant difference in the expression of p-CREB protein among the groups.

5-HT2A = 5-HT2A protein expression in hippocampus (immunoblot); format: in vivo, mice; conditions: 21 d, vs model group
From the text: as §1

CORT = experiment: Serum CORT level, BEL study; format: in vivo; conditions: CORT-induced mice
Experimental: (§2) Behavioral experiments were conducted once a week, and the serum 5-HT and CORT levels of mice were recorded.

[1] = Mass spectrometry imaging of mouse brain; format: in vivo, mice; conditions: mass spectrometry imaging, 21 d
[2] = tested on: neurons in the hippocampus of mice; experiment: H & E staining and immunofluorescence histochemistry of hippocampus; format: in vivo; conditions: 21 d of administration, CORT-induced mice
From the text: [0170](2) After 21 d of drug administration, the hippocampus of mice in each treatment group was stained with H & E, and the proliferation of neurons in the hippocampus of mice was detected by immunofluorescence histochemistry.
(§3) Compared with the normal group, the hippocampus structure of the model group mice was abnormal, the cells were wrinkled and then irregularly arranged. After administration, the hippocampus structure returned to normal and the cells were arranged regularly. […] [0172](3) After 21 d of drug administration, brain tissues of mice in each treatment group were collected for Golgi staining.

5-HT = experiment: Serum 5-HT level, BEL study; format: in vivo; conditions: CORT-induced mice
Experimental: as §2

CREB = CREB / p-CREB protein expression in hippocampus (immunoblot); format: in vivo, mice; conditions: 21 d
From the text: as §1

mice = experiment: Acute toxicity study of BEL in mice; format: in vivo
[3] = tested on: CORT-induced Kunming mouse model; experiment: In vivo antidepressant study of BEL: behavioral tests (FST, TST, SPT, NSFT); set-up: species or system Kunming (KM) mice; conditions: CORT-induced mice
hippocampal neurons = experiment: Golgi staining of brain tissue: neuron dendrite length and dendritic spine density; format: in vivo, mice; conditions: 21 d; for Neuron dendrite length, Maximum / Neuron dendrite length, Mean / Neuron dendrite length, Minimum: mouse hippocampus
From the text: as §3
• (4) After 21 d of drug administration, the dendritic spine density of neurons in the hippocampus of mice was counted. […] The effect intensity was as follows: 10 mg/kg BEL treatment group >20 mg/kg BEL treatment group BEL 40 mg/kg BEL treatment group.

HT22 cells = experiment: CORT-induced HT22 cell viability, BEL; format: cell-based; conditions: Mus musculus, HT-22, 250 μM CORT, 24 h, model = 100.00
Arg1 = Arg1 protein expression in hippocampus (immunoblot); format: in vivo, mice; conditions: 10 mg/kg, 21 d, vs model group
From the text: as §1

[4] = tested on: CORT-induced Kunming mouse model; experiment: In vivo antidepressant study of BEL: body weight, diet, water intake; set-up: species or system Kunming (KM) mice; conditions: 21 d, CORT-induced mice
Experimental: After one week of adaptive feeding of experimental mice, 10 mice were randomly selected from 150 mice as a normal group, and the mice in the normal group were not treated in any way. […] The dosing volume was changed once a week according to the weight of the mice, and the mice were subcutaneously administered in the groin of the hind limb between 9:00 and 11:00 am every day. During the modeling, the weight, diet, and water intake of the mice were recorded, and the relevant data were counted once a week until the modeling was completed. During the modeling, the mice were subjected to behavioral analysis. 4 behavioral test designs were designed: FST, TST, SPT, and NSFT. […] There were 5 mice/cage in the normal group and 5 mice/cage in the model group. […] Behavioral experiments were conducted once a week, and the serum 5-HT and CORT levels of mice were recorded. The results were shown in Tables 3 to 5 and FIG. 12A to FIG. 14B.

[5] = serum, 214 mg/kg gavage, 3 times within 24 h

In the case of `COc1cc(O)c2c(=O)c3c(O)ccc(O)c3oc2c1` [BEL, bellidifolin], the “Expression of 5-HT1A protein in hippocampus” value (5-HT1A) is reported as “could significantly promote the expression of 5-HT1A protein”, the “Expression of 5-HT2A protein in hippocampus” value (5-HT2A) is reported as “had no effect on the expression of 5-HT2A” and the “Serum CORT” value (CORT; 10 mg/kg/d gavage) is reported as 107.08 ± 8.16 ng/mL. The “Serum CORT” value (CORT; 20 mg/kg/d gavage) was 111.82 ± 8.27 ng/mL, the “Serum CORT” value (CORT; 40 mg/kg/d gavage) was 93.63 ± 11.48 ng/mL and the Distribution in brain [1] was “mainly distributed in the hypothalamus, amygdala, hippocampus, and cortex of mice”. The “Proliferation of neurons in the hippocampus (immunohistofluorescence)” value [2] was “could promote the proliferation of neurons in the mouse hippocampus”, the “Serum 5-HT” value (5-HT; 10 mg/kg/d gavage) was 134.29 ± 12.34 ng/mL and the “Serum 5-HT” value (5-HT; 20 mg/kg/d gavage) was 216.11 ± 3.34 ng/mL. The “Serum 5-HT” value (5-HT; 40 mg/kg/d gavage) was 133.42 ± 30.76 ng/mL, the “CREB protein level in hippocampus” value (CREB; 10 mg/kg, reduced level in model group) was “could significantly reverse this phenomenon” and the “Phosphorylation level of CREB in hippocampus” value (CREB; 40 mg/kg, vs model group) was “significantly decreased”. The “Observation during 14-d period” value (mice; 214 mg/kg gavage 3 times within 24 h, subsequent 14-d observation) was “did not show any abnormalities”, the “Toxic side effects (weight, brain, liver, kidneys)” value (mice; 214 mg/kg gavage, 3 times within 24 h) was “no toxic side effects on mice” and the Weight (mice; 214 mg/kg gavage, 3 times within 24 h, 14 d observation) was 39.18 ± 3.94 g. For the same molecule, the Observation after treatment (mice; 214 mg/kg gavage, 20 min after the second treatment) was “slight tremors, which disappeared after 2 min”, the ALT (mice; [5]) was 26.85 ± 6.22 U/L and the AST (mice; [5]) was 48.73 ± 4.15 U/L. For the same molecule, the CRE (mice; [5]) was 23.20 ± 5.69 µmol/L, the FST immobility time ([3]; 10 mg/kg/d gavage) was 145.00 ± 36.40 s and the “NSFT start time of eating” value ([3]; 10 mg/kg/d gavage) was 42.75 ± 31.56 s. The “SPT sugar water preference” value ([3]; 10 mg/kg/d gavage) was 13.72 ± 0.30 %, the TST immobility time ([3]; 10 mg/kg/d gavage) was 27.50 ± 16.05 s and the FST immobility time ([3]; 20 mg/kg/d gavage) was 127.14 ± 36.38 s. The “NSFT start time of eating” value ([3]; 20 mg/kg/d gavage) was 57.14 ± 35.77 s, the “SPT sugar water preference” value ([3]; 20 mg/kg/d gavage) was 12.41 ± 3.32% and the TST immobility time ([3]; 20 mg/kg/d gavage) was 47.22 ± 35.19 s. The FST immobility time ([3]; 40 mg/kg/d gavage) was 193.33 ± 25.98 s, the “NSFT start time of eating” value ([3]; 40 mg/kg/d gavage) was 38.78 ± 22.73 s and the “SPT sugar water preference” value ([3]; 40 mg/kg/d gavage) was 8.75 ± 0.18%. For the same molecule, the TST immobility time ([3]; 40 mg/kg/d gavage) was 98.75 ± 66.35 s, the “Neuron dendrite length, Maximum” value (hippocampal neurons; 10 mg/kg/d gavage) was 1853.00 μm and the “Neuron dendrite length, Mean” value (hippocampal neurons; 10 mg/kg/d gavage) was 75.66 ± 60.55 μm. The “Neuron dendrite length, Minimum” value (hippocampal neurons; 10 mg/kg/d gavage) was 5.86 μm, the “Neuron dendrite length, Maximum” value (hippocampal neurons; 20 mg/kg/d gavage) was 2297.92 μm and the “Neuron dendrite length, Mean” value (hippocampal neurons; 20 mg/kg/d gavage) was 140.64 ± 73.11 μm. For the same molecule, the “Neuron dendrite length, Minimum” value (hippocampal neurons; 20 mg/kg/d gavage) was 6.32 μm, the “Neuron dendrite length, Maximum” value (hippocampal neurons; 40 mg/kg/d gavage) was 194.06 μm and the “Neuron dendrite length, Mean” value (hippocampal neurons; 40 mg/kg/d gavage) was 51.73 ± 33.73 μm. For the same molecule, the “Neuron dendrite length, Minimum” value (hippocampal neurons; 40 mg/kg/d gavage) was 6.04 μm, the “Dendritic spine density of hippocampal neurons” value (hippocampal neurons; 10, 20 and 40 mg/kg, vs model group) was “could significantly increase the dendritic spine density” and the “Number and length of neurons in the hippocampus (Golgi staining)” value (hippocampal neurons; 10 and 20 mg/kg) was “increased the number of neurons and the length of neurons”. For the same molecule, the viability at 0.0625 µM (HT22 cells) was 103 ± 5.03%, the viability at 0.125 µM (HT22 cells) was 107 ± 2.64% and the viability at 0.25 µM (HT22 cells) was 115 ± 3.93%. The viability at 0.5 µM (HT22 cells) was 120 ± 3.97%, the viability at 1 µM (HT22 cells) was 139 ± 5.34% and the “Expression of Arg1 protein in hippocampus” value (Arg1) was “could significantly reverse the decrease in Arg1 expression”. The Body weight ([4]; 10 mg/kg/d gavage) was 37.19 ± 3.35 g, the Diet ([4]; 10 mg/kg/d gavage) was 4.02 ± 0.03 g/day and the Water intake ([4]; 10 mg/kg/d gavage) was 4.72 ± 0.42 g/day. It also gave a Body weight ([4]; 20 mg/kg/d gavage) of 37.33 ± 3.30 g, a Diet ([4]; 20 mg/kg/d gavage) of 4.48 ± 0.45 g/day and a Water intake ([4]; 20 mg/kg/d gavage) of 4.87 ± 0.99 g/day. For the same molecule, the Body weight ([4]; 40 mg/kg/d gavage) was 36.31 ± 3.72 g, the Diet ([4]; 40 mg/kg/d gavage) was 5.14 ± 1.00 g/day and the Water intake ([4]; 40 mg/kg/d gavage) was 6.82 ± 0.45 g/day.

In the case of `CNCCC(Oc1ccc(C(F)(F)F)cc1)c1ccccc1` (stereo not shown) [Flu, fluoxetine hydrochloride, reference compound], the “Serum CORT” value (CORT; 20 mg/kg/d gavage) is reported as 152.77 ± 11.25 ng/mL, the FST immobility time ([3]; 20 mg/kg/d gavage) is reported as 178.50 ± 36.52 s and the “NSFT start time of eating” value ([3]; 20 mg/kg/d gavage) is reported as 84.50 ± 32.69 s. The “SPT sugar water preference” value ([3]; 20 mg/kg/d gavage) was 13.28 ± 0.56 %, the TST immobility time ([3]; 20 mg/kg/d gavage) was 71.43 ± 40.80 s and the “Neuron dendrite length, Maximum” value (hippocampal neurons; 20 mg/kg/d gavage) was 180.19 μm. For the same molecule, the “Neuron dendrite length, Mean” value (hippocampal neurons; 20 mg/kg/d gavage) was 54.65 ± 32.76 μm, the “Neuron dendrite length, Minimum” value (hippocampal neurons; 20 mg/kg/d gavage) was 6.57 μm and the viability at 0.0625 µM (HT22 cells) was 103 ± 4.06%. For the same molecule, the viability at 0.125 µM (HT22 cells) was 108 ± 3.95%, the viability at 0.25 µM (HT22 cells) was 111 ± 1.64% and the viability at 0.5 µM (HT22 cells) was 112 ± 2.77%. It also gave a viability at 1 µM (HT22 cells) of 123 ± 8.39%, a Body weight ([4]; 20 mg/kg/d gavage) of 27.03 ± 1.74 g and a Diet ([4]; 20 mg/kg/d gavage) of 3.90 ± 0.39 g/day. The Water intake ([4]; 20 mg/kg/d gavage) was 4.00 ± 0.97 g/day.

In the case of `CN(C)CCCN1c2ccccc2CCc2ccccc21` [Imi, imipramine hydrochloride, reference compound], the “Serum CORT” value (CORT; 20 mg/kg/d gavage) is reported as 143.19 ± 12.30 ng/mL, the “Serum 5-HT” value (5-HT; 20 mg/kg/d gavage) is reported as 130.24 ± 13.65 ng/mL and the FST immobility time ([3]; 20 mg/kg/d gavage) is reported as 163.00 ± 38.09 s. The “NSFT start time of eating” value ([3]; 20 mg/kg/d gavage) was 65.11 ± 32.90 s, the “SPT sugar water preference” value ([3]; 20 mg/kg/d gavage) was 8.32 ± 0.12% and the TST immobility time ([3]; 20 mg/kg/d gavage) was 76.43 ± 46.52 s. For the same molecule, the “Neuron dendrite length, Maximum” value (hippocampal neurons; 20 mg/kg/d gavage) was 172.10 μm, the “Neuron dendrite length, Mean” value (hippocampal neurons; 20 mg/kg/d gavage) was 37.66 ± 25.07 μm and the “Neuron dendrite length, Minimum” value (hippocampal neurons; 20 mg/kg/d gavage) was 5.95 μm. The Body weight ([4]; 20 mg/kg/d gavage) was 34.41 ± 1.80 g, the Diet ([4]; 20 mg/kg/d gavage) was 4.38 ± 0.45 g/day and the Water intake ([4]; 20 mg/kg/d gavage) was 4.92 ± 0.40 g/day.
